Patent US20030212006A1, “Method for reducing free radical formation in healthy individuals undergoing hypoxic exercise and medical conditions with increased oxygen free radicals” (priority 2002, published 2003)

Assays:
Type in all cases: in vivo, human
[1] = Reduced plasma glutathione (GSH) after a single cycling bout under hypoxic conditions; conditions: 7 grams ribose before and after exercise; n=7 subjects; p=0.000
Procedure: (§1) Seven healthy, moderately to highly conditioned subjects volunteered to participate in this randomized, blinded, crossover trial. All subjects were between the ages of 23 and 41 years of age, and each subject cycled in two distinct trial arms, a ribose phase and a control phase. One week separated each trial arm. Subjects ingested either 7 grams of ribose in 250 mL of water or just plain water, five minutes prior to the start of exercise and again within five minutes following exercise. The scheduled exercise was 25 minutes of cycling at a workload relating to the lactic acid threshold. Subjects inhaled a hypoxic gas mixture of 16% oxygen and 84% nitrogen through a one-way breathing valve during the exercise bout. Following the cycling exercise, subjects sat quietly for 60 minutes and breathed room air during the recovery phase. All tests were conducted at room temperature. […] A whole blood sample was analyzed for hemoglobin. […] Each frozen plasma sample was analyzed for total protein and uric acid levels. Plasma samples were also analyzed for reduced glutathione levels (GSH kit, Oxis Research, Portland, Oreg.) and volumes were corrected for potential fluid loss by measuring total protein values. The frozen urine samples were analyzed for MDA (MDA kit, Oxis Research, Portland, Oreg.). […]

[2] = Subjective ranking of exercise and recovery by blinded subjects
Procedure: (§2) Seven healthy, moderately to highly conditioned subjects volunteered to participate in this randomized, blinded, crossover trial. All subjects were between the ages of 23 and 41 years of age, and each subject cycled in two distinct trial arms, a ribose phase and a control phase. One week separated each trial arm. Subjects ingested either 7 grams of ribose in 250 mL of water or just plain water, five minutes prior to the start of exercise and again within five minutes following exercise. The scheduled exercise was 25 minutes of cycling at a workload relating to the lactic acid threshold. Subjects inhaled a hypoxic gas mixture of 16% oxygen and 84% nitrogen through a one-way breathing valve during the exercise bout. Following the cycling exercise, subjects sat quietly for 60 minutes and breathed room air during the recovery phase. All tests were conducted at room temperature. […] During the control trial, subjects expressed strong desires to take a nap during the recovery period. Additionally, four of the subjects reported that after leaving the laboratory, they went home and took long (>2 hours) naps.

[3] = Urinary MDA after a single cycling bout under hypoxic conditions (16% oxygen), crossover trial; conditions: 7 grams ribose in 250 mL water before and after exercise; compared to the placebo; n=7 subjects; p=0.01
Procedure: as §1

[4] = Heart rate during a cycling bout under hypoxic conditions; conditions: n=7 subjects
Procedure: as §2, with “temperature. The cardiovascular parameters of heart rate and oxygen pulse saturation (SpO2) were collected at 9 minutes, 17 minutes, and 25 minutes of exercise. Oxygen pulse saturation was collected with a Nonin pulse oximeter (Nonin Medical Inc., Plymouth, Minn.).” for “temperature.”, “The 4.8% vs. 7.5% represents heart rates” for “During the control trial, subjects expressed strong desires to take a nap during the recovery period. Additionally, four”, “175 beats per minute (bpm)” for “the subjects reported that after leaving the laboratory, they went home”, “181 bpm for ribose and placebo (n=7 subjects).” for “took long (>2 hours) naps.”

## O=C[C@H](O)[C@H](O)[C@H](O)CO [ribose, D-ribose]
[1]
  Percent change in plasma GSH: significantly lower
[2]; after cycling when they ingested ribose
  Blinded subjects who ranked the exercise easier and felt they had a faster recovery period: 6 out of 7
[2]; recovery after hypoxic cycling when ribose was ingested
  Comments and symptoms observed during recovery: decreased lethargy
[3]
  Percent change in urine MDA: significantly lower
[4]; during hypoxic exercise, placebo 181 bpm
  Heart rate: 175 bpm
[4]; ribose supplementation vs placebo, p=0.03
  Percent change in heart rate during exercise (in words): significantly less
[4]; ribose supplementation, placebo 7.5%
  Percent change in heart rate during exercise: 4.8%
